According to patent publication US5294627A, “Directed biosynthesis of biologically active compounds” (Merck & Co., Inc., priority 1992, dated 1994):

Biological target: T1, Squalene synthase (Rattus norvegicus, UniProt Q02769)
T1 construct: from tissue; host or cells: liver microsomes of Charles River CD rats fed 0.1% lovastatin for 4 days
T1 sequence (Q02769 1-416): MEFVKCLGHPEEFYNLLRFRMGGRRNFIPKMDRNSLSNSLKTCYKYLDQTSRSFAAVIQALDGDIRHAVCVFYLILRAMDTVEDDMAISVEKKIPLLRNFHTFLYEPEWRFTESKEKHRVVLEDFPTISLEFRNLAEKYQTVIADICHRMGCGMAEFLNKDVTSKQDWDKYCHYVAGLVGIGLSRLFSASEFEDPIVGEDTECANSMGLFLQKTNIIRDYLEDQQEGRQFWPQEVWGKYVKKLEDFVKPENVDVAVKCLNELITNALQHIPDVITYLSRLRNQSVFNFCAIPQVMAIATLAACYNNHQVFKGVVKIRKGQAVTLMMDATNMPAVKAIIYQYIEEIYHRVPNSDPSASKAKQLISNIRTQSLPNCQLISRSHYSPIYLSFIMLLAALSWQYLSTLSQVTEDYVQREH
Experiment: Squalene synthase assay (rat liver microsomes, [3H]farnesyl-pyrophosphate)
Assay type: biochemical
Conditions: 30° C., 20 minutes
Method: The intrinsic squalene synthase inhibitory activity of representative compounds of this invention was measured by the standard in vitro protocol described below:
CHARLES RIVER CD rats (120 to 150 g) were fed a diet containing 0.1% lovastatin for 4 days. The livers from these rats were homogenized in 5 volumes (mL/g) of ice cold 50 mM HEPES (4-(2-hydroxyethyl)-1-piperazine-ethanesulfonic acid), 5 mM EDTA (ethylenediaminetetraacetic acid) pH 7.5 with a Potter-Elvehjem type tissue grinder. The homogenate was centrifuged twice at 20,000× g for 15 min. at 4° C., discarding the pellet each time. The supernatant was then centrifuged at 100,000× g for 1 hr at 4° C. The resulting microsomal pellet was resuspended in a volume of the above homogenizing buffer equal to one-fifth the volume of the original homogenate. This microsomal preparation has a protein concentration of about 7 mg/mL. The microsomal suspensions were stored in aliquots at -70° C. Squalene synthase activity in these aliquots is stable for a least several months. […]
If a squalene epoxidase inhibitor (ingredient (7) above), such as Banyu's FW-439H, is not used, the assay mix is degassed under a vacuum and flushed with N2. […] Five mL of scintillation fluid was added to the heptane solution and radioactivity was determined by liquid scintillation counting.
Percent inhibition is calculated by the formula: [formula]

- IC50: < 0.131 µM
Structure (SMILES): CC(=O)OC(CCCC12OC(C(=O)O)C(O)(C(=O)O)C(C(=O)O)(O1)[C@H](OC(=O)CC/C=C/C(C)CCCc1ccccc1)[C@H]2O)C(C)Cc1cccs1 (stereo partly shown)
